Results as given in patent US11071721B2, “Bicyclic amide compounds and methods of use thereof” (Genentech, Inc., priority 2016, dated 2021).

Biological target: human RIP1 kinase domain (2-375) (Homo sapiens (Human), UniProt Q13546)
Test: RIP1 kinase inhibition assay (Transcreener ADP biochemical enzyme assay)
Settings: Ki app (Morrison tight-binding fit); 50 nM enzyme, 50 uM ATP, 2 hours incubation, fluorescence polarization
Experimental: RIP1 Kinase Inhibition Assays (Biochemical Assay):
The compounds of the present invention were tested for their capacity to inhibit RIP K activity as described below.
Enzyme assay: The ability of the receptor interacting protein kinase (RIPK1) to catalyze the hydrolysis of adenosine-5′-triphosphate (ATP) is monitored using the Transcreener ADP (adenosine-5′-diphosphate) assay (BellBrook Labs). Purified human RIP1 kinase domain (2-375) (50 nM) derived from a baculovirus-infected insect cell expression system is incubated with test compounds for 2 hours in 50 mM Hepes buffer (pH 7.5) containing 30 mM MgCl2, 1 mM dithiothreitol, 50 uM ATP, 0.002% Brij-35, and 0.5% dimethyl sulfoxide (DMSO). Reactions are quenched by the addition of 1× Bell Brooks Stop buffer B (20 mM Hepes (ph7.5), 40 mM ethylenediaminetetraacetic acid and 0.02% Brij-35) containing an additional 12 mM EDTA and 55 ug/mL ADP2 antibody and 4 nM ADP-AlexaFluor® 633 tracer. The tracer bound to the antibody is displaced by the ADP generated during the RIP1K reaction, which causes a decrease in fluorescence polarization that is measured by laser excitation at 633 nm with a FP microplate reader M1000. Fractional activity was plotted against test article concentration. Using Genedata Screener software (Genedata; Basel, Switzerland), the data were fit to the tight-binding apparent inhibition constant (Ki^app) Morrison equation [Williams, J. W. and Morrison, J. F. (1979) The kinetics of reversible tight-binding inhibition. Methods Enzymol 63: 437-67]. The following equation was used to calculate fractional activity and Ki^app:
[formula] where [E]T and [I]T are the total concentrations of active enzyme and test article, respectively.

Sequence of human RIP1 kinase domain (2-375) (Q13546 2-375): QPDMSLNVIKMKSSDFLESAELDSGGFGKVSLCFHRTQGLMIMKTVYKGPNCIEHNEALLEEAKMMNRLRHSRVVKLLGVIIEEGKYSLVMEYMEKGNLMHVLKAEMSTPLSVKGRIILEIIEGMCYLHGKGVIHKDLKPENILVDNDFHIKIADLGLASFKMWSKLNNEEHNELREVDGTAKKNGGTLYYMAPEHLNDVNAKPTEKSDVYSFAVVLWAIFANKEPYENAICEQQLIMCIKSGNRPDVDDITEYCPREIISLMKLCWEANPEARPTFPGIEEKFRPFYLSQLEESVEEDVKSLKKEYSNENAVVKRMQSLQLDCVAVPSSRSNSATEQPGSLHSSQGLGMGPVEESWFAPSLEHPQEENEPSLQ

Ki | SMILES
57 nM | O=C(c1nc2n(n1)C(c1ccccc1)CC2(F)F)N1CC(F)(F)C1 (racemic) [Example 1, (3,3-difluoroazetidin-1-yl)-(7,7-difluoro-5-phenyl-5,6-dihydropyrrolo[1,2-b][1,2,4]triazol-2-yl)methanone]
205 nM | O=C(c1nc2n(n1)CCC2c1ccccc1)N1CC(F)(F)C1 (racemic) [Example 4, (3,3-difluoroazetidin-1-yl)-(7-phenyl-6,7-dihydro-5H-pyrrolo[1,2-b][1,2,4]triazol-2-yl)methanone]
768 nM | O=C(c1nc2n(n1)CCOC2c1ccccc1)N1CC(F)(F)C1 (racemic) [Example 5, (3,3-difluoroazetidin-1-yl)-(8-phenyl-6,8-dihydro-5H-[1,2,4]triazolo[5,1-c][1,4]oxazin-2-yl)methanone]
722 nM | O=C(c1nc2n(n1)CCOC2c1ccccc1F)N1CC(F)(F)C1 (racemic) [Example 6, (3,3-difluoroazetidin-1-yl)-[8-(2-fluorophenyl)-6,8-dihydro-5H-[1,2,4]triazolo[5,1-c][1,4]oxazin-2-yl]methanone]
8690 nM | CC(F)(F)C1CCc2nc(C(=O)N3CC(F)(F)C3)nn21 (racemic) [Example 8, (3,3-difluoroazetidin-1-yl)-[5-(1,1-difluoroethyl)-6,7-dihydro-5H-pyrrolo[1,2-b][1,2,4]triazol-2-yl]methanone]
1140 nM | O=C(c1cc2n(n1)CCOC2c1ccccc1)N1CC(F)(F)C1 (racemic) [Example 13, (3,3-difluoroazetidin-1-yl)-(4-phenyl-6,7-dihydro-4H-pyrazolo[5,1-c][1,4]oxazin-2-yl)methanone]
105 nM | O=C(c1nc2n(n1)C(c1ccccc1)CC2)N1CC(F)(F)C1 (racemic) [Example 16, (3,3-difluoroazetidin-1-yl)-(5-phenyl-6,7-dihydro-H-pyrrolo[1,2-b][1,2,4]triazol-2-yl)methanone]
1370 nM | COC1CN(C(=O)c2nc3n(n2)C(c2ccccc2)CC3)C1 (racemic) [Example 17, (3-methoxyazetidin-1-yl)-(5-phenyl-6,7-dihydro-5H-pyrrolo[1,2-b][1,2,4]triazol-2-yl)methanone]
343 nM | O=C(c1nc2n(n1)C(c1ccccc1)CC2)N1CC(F)C1 (racemic) [Example 18, (3-fluoroazetidin-1-yl)-(5-phenyl-6,7-dihydro-5H-pyrrolo[1,2-b][1,2,4]triazol-2-yl)methanone]
465 nM | CC1CN(C(=O)c2nc3n(n2)C(c2ccccc2)CC3)C1 (racemic) [Example 19, (3-methylazetidin-1-yl)-(5-phenyl-6,7-dihydro-5H-pyrrolo[1,2-b][1,2,4]triazol-2-yl)methanone]
271 nM | CC1(F)CN(C(=O)c2nc3n(n2)C(c2ccccc2)CC3)C1 (racemic) [Example 20, (3-fluoro-3-methyl-azetidin-1-yl)-(5-phenyl-6,7-dihydro-5H-pyrrolo[1,2-b][1,2,4]triazol-2-yl)methanone]
1360 nM | CCC1CN(C(=O)c2nc3n(n2)C(c2ccccc2)CC3)C1 (racemic) [Example 21, (3-ethylazetidin-1-yl)-(5-phenyl-6,7-dihydro-5H-pyrrolo[1,2-b][1,2,4]triazol-2-yl)methanone]
511 nM | O=C(c1nc2n(n1)C(c1ccccc1F)CC2)N1CCC1 (racemic) [Example 22, Azetidin-1-yl-[5-(2-fluorophenyl)-6,7-dihydro-5H-pyrrolo[1,2-b][1,2,4]triazol-2-yl]methanone]
44 nM | O=C(c1nc2n(n1)C(c1ccccc1F)CC2)N1CC(F)(F)C1 (racemic) [Example 23, (3,3-difluroroazetidin-1-yl)-[5-(2-fluorophenyl)-6,7-dihydro-5H-pyrrolo[1,2-b][1,2,4]triazol-2-yl]methanone]
194 nM | O=C(c1nc2n(n1)C(c1ccccc1F)CC2)N1CC(F)C1 (racemic) [Example 24, (3-fluoroazetidin-1-yl)-[5-(2-fluorophenyl)-6,7-dihydro-5H-pyrrolo[1,2-b][1,2,4]triazol-2-yl]methanone]
3600 nM | CNC(=O)c1nc2n(n1)C(c1ccccc1)CC2 (racemic) [Example 25, N-methyl-5-phenyl-6,7-dihydro-5H-pyrrolo[1,2-b][1,2,4]triazole-2-carboxamide]
530 nM | O=C(c1nc2n(n1)C(c1ccccc1)CC2)N1CCC1 (racemic) [Example 26, azetidin-1-yl-(5-phenyl-6,7-dihydro-5H-pyrrolo[1,2-b][1.2.4]triazol-2-yl)methanone]
2200 nM | CN(C)C(=O)c1nc2n(n1)C(c1ccccc1)CC2 (racemic) [Example 27, N,N-dimethyl-5-phenyl-6,7-dihydro-5H-pyrrolo[1,2-b][1,2,4]triazole-2-carboxamide]

Ki | SMILES
8900 nM | O=C(c1nc2n(n1)C(c1ccccc1)CC2)N1CC2CC1C2 (racemic) [Example 28, 2-azabicyclo[2.1.1]hexan-2-yl-(5-phenyl-6,7-dihydro-5H-pyrrolo[1,2-b][1,2,4]triazol-2-yl)methanone]
5400 nM | O=C(c1nc2n(n1)C(c1ccccc1)CC2)N1CCCCC1 (racemic) [Example 29, (5-phenyl-6,7-dihydro-5H-pyrrolo[1,2-b][1,2,4]triazol-2-yl)-(1-piperidyl)methanone]
6400 nM | O=C(c1nc2n(n1)C(c1ccccc1)CC2)N1CCCC1 (racemic) [Example 30, (5-phenyl-6,7-dihydro-5H-pyrrolo[1,2-b][1,2,4]triazol-2-yl)-pyrrolidin-1-yl-methanone]
1400 nM | CN(C)C(=O)c1nc2n(n1)C(c1ccccc1F)CC2 (racemic) [Example 33]
3400 nM | O=C(c1nc2n(n1)C(c1ccccc1F)CC2)N1CCCC1 (racemic) [Example 34]
1300 nM | O=C(c1nc2n(n1)[C@H](c1ccccc1)C[C@H]2F)N1CC(F)C1 (racemic) [Example 35]
1400 nM | O=C(c1cc2n(n1)CCOC2c1ccccc1F)N1CC(F)(F)C1 (racemic) [Example 37, (3,3-difluoroazetidin-1-yl)-[4-(2-fluorophenyl)-6,7-dihydro-4H-pyrazolo[5,1-c][1,4]oxazin-2-yl]methanone]
32 nM | O=C(c1nc2n(n1)[C@@H](c1ccccc1)C[C@H]2F)N1CC(F)C1 (racemic) [Example 39]
920 nM | CCC(F)(F)C1CCc2nc(C(=O)N3CC(F)(F)C3)nn21 (racemic) [Example 40, (3,3-difluoroazetidin-1-yl)-[5-(1,1-difluoropropyl)-6,7-dihydro-5H-pyrrolo[1,2-b][1,2,4]triazol-2-yl]methanone]
8000 nM | CN(C)C(=O)c1nc2n(n1)CCOC2c1ccccc1 (racemic) [Example 41, N,N-dimethyl-8-phenyl-6,8-dihydro-5H-[1,2,4]triazolo[5,1-c][1,4]oxazine-2-carboxamide]
5000 nM | CN(C)C(=O)c1nc2n(n1)CCOC2c1ccccc1F (racemic) [Example 43, 8-(2-fluorophenyl)-N,N-dimethyl-6,8-dihydro-5H-[1,2,4]triazolo[5,1-c][1,4]oxazine-2-carboxamide]
4800 nM | CCN(CC)C(=O)c1nc2n(n1)CCOC2c1ccccc1F (racemic) [Example 44, N,N-diethyl-8-(2-fluorophenyl)-6,8-dihydro-5H-[1,2,4]triazolo[5,1-c][1,4]oxazine-2-carboxamide]
2300 nM | O=C(c1nc2n(n1)CCOC2c1ccccc1F)N1CC(F)C1 (racemic) [Example 45, (3-fluoroazetidin-1-yl)-[8-(2-fluorophenyl)-6,8-dihydro-5H-[1,2,4]triazolo[5,1-c][1,4]oxazin-2-yl]methanone]
917 nM | O=C(c1nc2n(n1)C(c1ccccc1)C1CC21)N1CC(F)C1 (racemic) [Example 46]
195 nM | O=C(c1nc2n(n1)C(c1ccccc1)C1CC21)N1CC(F)(F)C1 (racemic) [Example 47]
5000 nM | O=C(c1nc2n(n1)[C@H](C(F)(F)F)CC2)N1CC(F)(F)C1 (racemic) [Example 49, (3,3-difluoroazetidin-1-yl)-[rac-(5S)-5-(trifluoromethyl)-6,7-dihydro-5H-pyrrolo[1,2-b][1,2,4]triazol-2-yl]methanone]
1600 nM | O=C(c1nc2n(n1)[C@H](c1ccccc1)C[C@@H]2F)N1CC(C(F)(F)F)C1 (racemic) [Example 50, [rac-(5S,7S)-7-fluoro-5-phenyl-6,7-dihydro-5H-pyrrolo[1,2-b][1,2,4]triazol-2-yl]-[3-(trifluoromethyl)azetidin-1-yl]methanone]
100 nM | O=C(c1nc2n(n1)[C@H](c1ccccc1)C[C@@H]2F)N1CC(C(F)F)C1 (racemic) [Example 51, [3-(difluoromethyl)azetidin-1-yl]-[rac-(5S, 7S)-7-fluoro-5-phenyl-6,7-dihydro-5H-pyrrolo[1,2-b][1,2,4]triazol-2-yl]methanone]

SMILES | Ki
O=C(c1nc2n(n1)[C@@H](c1ccccc1)C[C@@H]2F)N1CC(F)(F)C1 (racemic) [Example 2, (3,3-difluoroazetidin-1-yl)-[rac-(5R,7S)-7-fluoro-5-phenyl-6,7-dihydro-5H-pyrrolo[1,2-b][1,2,4]triazol-2-yl]methanone] | 478 nM
